Consider 25 substances from the OligoGym collection.

HELM strings list units from the 5' end as sugar, base in round brackets, then linkage (d deoxyribose, r ribose, m 2'-O-methyl, p phosphodiester). Strings are as the collection lists them; they lack the last nucleoside at the 3' end of the tested compound. [moe] = 2'-O-(2-methoxyethyl) (MOE); [sp] = phosphorothioate linkage; [m5C] = 5-methylcytosine

This data set deals with HTT. As to the kind of experiment: mouse, dose not given. The following applies: ASO.
As to “RNA1{[moe](A)[sp].[moe](A)p.[moe]([m5C])p.[moe](A)p.[moe](A)[sp].d(A)[sp].d(T)[sp].d(A)[sp].d(T)[sp].d(T)[sp].d(T)[sp].d(T)[sp].d([m5C])[sp].d(A)[sp].d(A)[sp].[moe]([m5C])p.[moe](T)p.[moe](G)[sp].[moe](G)}$$$$ (last 3' nucleoside missing)”, the 3 h FOB score amounted to 4.5 score 0-7. Then “RNA1{[moe](A)[sp].[moe](T)p.[moe]([m5C])p.[moe]([m5C])p.[moe](A)[sp].d(G)[sp].d(A)[sp].d(T)[sp].d(T)[sp].d(A)[sp].d(T)[sp].d(A)[sp].d([m5C])[sp].d(A)[sp].d(T)[sp].[moe]([m5C])p.[moe](T)p.[moe]([m5C])[sp].[moe]([m5C])}$$$$ (last 3' nucleoside missing)”, with 0 score 0-7; and “RNA1{[moe](A)[sp].[moe]([m5C])p.[moe](A)p.[moe](G)p.[moe]([m5C])[sp].d(T)[sp].d(T)[sp].d(T)[sp].d(T)[sp].d(A)[sp].d(T)[sp].d(T)[sp].d(T)[sp].d([m5C])[sp].d([m5C])[sp].[moe](A)p.[moe](T)p.[moe](A)[sp].[moe]([m5C])}$$$$ (last 3' nucleoside missing)”, with 1 score 0-7; and “RNA1{[moe](A)[sp].[moe]([m5C])p.[moe](A)p.[moe](G)p.[moe]([m5C])p.[moe](T)p.d(T)[sp].d(T)[sp].d(T)[sp].d(A)[sp].d(T)[sp].d(T)[sp].d(T)[sp].d([m5C])[sp].d([m5C])[sp].d(A)[sp].[moe](T)p.[moe](A)[sp].[moe]([m5C])}$$$$ (last 3' nucleoside missing)”, with 0 score 0-7.

Take “RNA1{[moe](A)[sp].[moe]([m5C])p.[moe](T)p.[moe]([m5C])p.[moe](A)[sp].d(T)[sp].d(T)[sp].d(T)[sp].d([m5C])[sp].d([m5C])[sp].d(A)[sp].d([m5C])[sp].d([m5C])[sp].d(T)[sp].d(T)[sp].[moe]([m5C])p.[moe](A)p.[moe](G)[sp].[moe]([m5C])}$$$$ (last 3' nucleoside missing)”: the 3 h FOB score was 0 score 0-7. Then “RNA1{[moe](G)[sp].[moe](G)p.[moe](T)p.[moe](T)p.[moe](A)[sp].d(G)[sp].d(T)[sp].d(T)[sp].d(T)[sp].d(T)[sp].d([m5C])[sp].d([m5C])[sp].d(T)[sp].[moe](T)p.[moe](T)p.[moe](T)[sp].[moe](A)}$$$$ (last 3' nucleoside missing)”, with 1 score 0-7. Next, “RNA1{[moe](G)[sp].[moe](G)p.[moe](T)p.[moe](T)p.[moe](A)[sp].d(G)[sp].d(T)[sp].d(T)[sp].d(T)[sp].d(T)[sp].d([m5C])[sp].d([m5C])[sp].d(T)[sp].d(T)[sp].d(T)[sp].[moe](T)p.[moe](A)p.[moe](T)[sp].[moe](A)}$$$$ (last 3' nucleoside missing)”: 1 score 0-7; “RNA1{[moe](G)[sp].[moe](G)p.[moe](T)p.[moe]([m5C])p.[moe](A)[sp].d([m5C])[sp].d(A)[sp].d(G)[sp].d([m5C])[sp].d(T)[sp].d(T)[sp].d(T)[sp].d(T)[sp].d(A)[sp].d(T)[sp].[moe](T)p.[moe](T)p.[moe]([m5C])[sp].[moe]([m5C])}$$$$ (last 3' nucleoside missing)”: 0 score 0-7; “RNA1{[moe](G)[sp].[moe](T)p.[moe](G)p.[moe]([m5C])p.[moe](A)[sp].d(T)[sp].d(T)[sp].d(A)[sp].d([m5C])[sp].d(T)[sp].d(T)[sp].d(T)[sp].d(T)[sp].d(T)[sp].d(A)[sp].[moe]([m5C])p.[moe](A)p.[moe](A)[sp].[moe](T)}$$$$ (last 3' nucleoside missing)”: 1.25 score 0-7.

In turn, “RNA1{[moe](G)[sp].[moe](T)p.[moe](G)p.[moe]([m5C])p.[moe](A)p.[moe](T)p.d(T)[sp].d(A)[sp].d([m5C])[sp].d(T)[sp].d(T)[sp].d(T)[sp].d(T)[sp].d(T)[sp].d(A)[sp].d([m5C])[sp].[moe](A)p.[moe](A)[sp].[moe](T)}$$$$ (last 3' nucleoside missing)” returned a 3 h FOB score of 3 score 0-7.

For the substance “RNA1{[moe](G)[sp].[moe](T)p.[moe]([m5C])[sp].[moe](A)[sp].[moe]([m5C])[sp].d(A)[sp].d(G)[sp].d([m5C])[sp].d(T)[sp].d(T)[sp].d(T)[sp].d(T)[sp].d(A)[sp].d(T)[sp].d(T)[sp].[moe](T)[sp].[moe]([m5C])p.[moe]([m5C])[sp].[moe](A)}$$$$ (last 3' nucleoside missing)”, the 3 h FOB score amounted to 1.25 score 0-7. Next, “RNA1{[moe](G)[sp].[moe](T)p.[moe]([m5C])p.[moe](A)p.[moe]([m5C])[sp].d(A)[sp].d(G)[sp].d([m5C])[sp].d(T)[sp].d(T)[sp].d(T)[sp].d(T)[sp].d(A)[sp].d(T)[sp].d(T)[sp].[moe](T)p.[moe]([m5C])p.[moe]([m5C])[sp].[moe](A)}$$$$ (last 3' nucleoside missing)”: 1 score 0-7; “RNA1{[moe](G)[sp].[moe]([m5C])p.[moe](A)[sp].[moe](T)[sp].[moe](T)[sp].d(A)[sp].d([m5C])[sp].d(T)[sp].d(T)[sp].d(T)[sp].d(T)[sp].d(T)[sp].d(A)[sp].d([m5C])[sp].d(A)[sp].[moe](A)[sp].[moe](T)p.[moe](G)[sp].[moe](G)}$$$$ (last 3' nucleoside missing)”: 5.25 score 0-7; “RNA1{[moe](G)[sp].[moe]([m5C])p.[moe](A)p.[moe](T)p.[moe](T)[sp].d(A)[sp].d([m5C])[sp].d(T)[sp].d(T)[sp].d(T)[sp].d(T)[sp].d(T)[sp].d(A)[sp].d([m5C])[sp].d(A)[sp].[moe](A)p.[moe](T)p.[moe](G)[sp].[moe](G)}$$$$ (last 3' nucleoside missing)”: 1 score 0-7. Next, “RNA1{[moe](G)[sp].[moe]([m5C])p.[moe](A)p.[moe](T)p.[moe]([m5C])[sp].d(T)[sp].d(T)[sp].d(G)[sp].d(T)[sp].d(T)[sp].d(T)[sp].d(T)[sp].d(A)[sp].d([m5C])[sp].d([m5C])[sp].[moe](A)p.[moe]([m5C])p.[moe]([m5C])[sp].[moe]([m5C])}$$$$ (last 3' nucleoside missing)”: 1.5 score 0-7; “RNA1{[moe](G)[sp].[moe]([m5C])p.[moe](T)p.[moe](T)p.[moe](T)[sp].d(G)[sp].d(A)[sp].d(T)[sp].d(T)[sp].d(T)[sp].d(T)[sp].d(T)[sp].d(A)[sp].d([m5C])[sp].d([m5C])[sp].[moe](A)p.[moe](G)p.[moe](T)[sp].[moe](T)}$$$$ (last 3' nucleoside missing)”: 1 score 0-7; “RNA1{[moe](G)[sp].[moe]([m5C])p.[moe](T)p.[moe](T)p.[moe](T)[sp].d(T)[sp].d(G)[sp].d(A)[sp].d(A)[sp].d(A)[sp].d(T)[sp].d(T)[sp].d([m5C])[sp].d(T)[sp].d([m5C])[sp].[moe]([m5C])p.[moe](A)p.[moe](T)[sp].[moe]([m5C])}$$$$ (last 3' nucleoside missing)”: 6.75 score 0-7. Next, “RNA1{[moe](G)[sp].[moe]([m5C])p.[moe](T)p.[moe](T)p.[moe](T)p.[moe](G)p.d(A)[sp].d(T)[sp].d(T)[sp].d(T)[sp].d(T)[sp].d(T)[sp].d(A)[sp].d([m5C])[sp].d([m5C])[sp].d(A)[sp].[moe](G)p.[moe](T)[sp].[moe](T)}$$$$ (last 3' nucleoside missing)”: 0.5 score 0-7.

“RNA1{[moe](G)[sp].[moe]([m5C])p.[moe]([m5C])p.[moe](A)p.[moe](T)[sp].d(A)[sp].d(T)[sp].d(T)[sp].d(T)[sp].d(T)[sp].d([m5C])[sp].d(T)[sp].d([m5C])[sp].d(A)[sp].d(A)[sp].[moe]([m5C])p.[moe](T)p.[moe](T)[sp].[moe](T)}$$$$ (last 3' nucleoside missing)” showed a 3 h FOB score of 0 score 0-7. Turning to “RNA1{[moe](T)[sp].[moe](G)p.[moe]([m5C])p.[moe](A)p.[moe](T)p.[moe](T)p.d(A)[sp].d([m5C])[sp].d(T)[sp].d(T)[sp].d(T)[sp].d(T)[sp].d(T)[sp].d(A)[sp].d([m5C])[sp].d(A)[sp].[moe](A)p.[moe](T)[sp].[moe](G)}$$$$ (last 3' nucleoside missing)”, the 3 h FOB score was 6.5 score 0-7. “RNA1{[moe](T)[sp].[moe](G)p.[moe]([m5C])p.[moe](T)p.[moe](G)[sp].d([m5C])[sp].d(T)[sp].d([m5C])[sp].d(A)[sp].d([m5C])[sp].d(T)[sp].d([m5C])[sp].d(A)[sp].d(T)[sp].d(T)[sp].[moe](T)p.[moe]([m5C])p.[moe]([m5C])[sp].[moe](A)}$$$$ (last 3' nucleoside missing)” returned a 3 h FOB score of 0 score 0-7. “RNA1{[moe](T)[sp].[moe](T)p.[moe](G)p.[moe](G)p.[moe](T)p.[moe](T)p.d(A)[sp].d(G)[sp].d(T)[sp].d(T)[sp].d(T)[sp].d(T)[sp].d([m5C])[sp].d([m5C])[sp].d(T)[sp].d(T)[sp].[moe](T)p.[moe](T)[sp].[moe](A)}$$$$ (last 3' nucleoside missing)” displayed a 3 h FOB score of 0 score 0-7. Next, “RNA1{[moe](T)[sp].[moe]([m5C])p.[moe](A)p.[moe]([m5C])p.[moe](A)[sp].d(G)[sp].d([m5C])[sp].d(T)[sp].d(T)[sp].d(T)[sp].d(T)[sp].d(A)[sp].d(T)[sp].[moe](T)p.[moe](T)p.[moe]([m5C])[sp].[moe]([m5C])}$$$$ (last 3' nucleoside missing)”: 0 score 0-7; “RNA1{[moe](T)[sp].[moe]([m5C])p.[moe]([m5C])p.[moe](T)p.[moe]([m5C])[sp].d(T)[sp].d(T)[sp].d(T)[sp].d([m5C])[sp].d(A)[sp].d([m5C])[sp].d(T)[sp].d(G)[sp].d([m5C])[sp].d(T)[sp].[moe](T)p.[moe]([m5C])p.[moe](T)[sp].[moe](A)}$$$$ (last 3' nucleoside missing)”: 3 score 0-7; “RNA1{[moe]([m5C])[sp].[moe](A)p.[moe]([m5C])p.[moe](A)p.[moe](G)[sp].d([m5C])[sp].d(T)[sp].d(T)[sp].d(T)[sp].d(T)[sp].d(A)[sp].d(T)[sp].d(T)[sp].d(T)[sp].d([m5C])[sp].[moe]([m5C])p.[moe](A)p.[moe](T)[sp].[moe](A)}$$$$ (last 3' nucleoside missing)”: 0 score 0-7.
